ChEMBL document CHEMBL1151852, “Tetranortriterpenoids from the Leaves of Cipadessa cinerascens” (2009)

Tested on: P388
Assay: Cytotoxicity against mouse P388 cells after 72 hrs by MTT assay
Assay type: functional
Details: P388, 72 h, read-out: ED50 (the source's name)

C=C1[C@@H]2[C@H](OC(C)=O)C[C@@]3(C)[C@H](c4ccoc4)OC(=O)C[C@]13O[C@H]1[C@@H](OC(C)=O)[C@@H](OC(C)=O)C(C)(C)[C@H](CC(=O)OC)[C@@]21C [CINERACIPADESIN E]
EC50: > 5 µg/mL

C=C1[C@]2(OC(C)=O)C[C@@]3(C)[C@H](c4ccoc4)OC(=O)C[C@]13O[C@H]1[C@@H](OC(C)=O)[C@@H](OC(C)=O)C(C)(C)[C@H](CC(=O)OC)[C@@]1(C)C2=O [CINERACIPADESIN F]
EC50: > 5 µg/mL

C=C1[C@@]23CC(=O)O[C@@H](c4ccoc4)[C@]2(C)C[C@@H](O)[C@]1(O)[C@@]1(C)[C@@H](O3)[C@@H](OC(C)=O)[C@@H](OC(C)=O)C(C)(C)[C@@H]1CC(=O)OC [CINERACIPADESIN B]
EC50: > 5 µg/mL

CC[C@@H](C)C(=O)O[C@@H]1[C@H]2C(=O)[C@@](C)([C@@H](CC(=O)OC)C1(C)C)[C@@]13O[C@@H]1C[C@@]1(C)[C@H](c4ccoc4)OC(=O)C[C@@H]1[C@]31O[C@H]21 [CINERACIPADESIN A]
EC50: > 5 µg/mL

C=C1[C@@H]2[C@H](OC(C)=O)C[C@@]3(C)[C@H](c4ccoc4)OC(=O)C[C@]13O[C@H]1C[C@@H](OC(C)=O)C(C)(C)[C@H](CC(=O)OC)[C@]12C [CINERACIPADESIN D]
EC50: > 5 µg/mL

C=C1[C@]2(O)C(=O)C[C@@]3(C)[C@H](c4ccoc4)OC(=O)C[C@]13O[C@H]1C[C@@H](OC(C)=O)C(C)(C)[C@H](CC(=O)OC)[C@]12C [CINERACIPADESIN C]
EC50: > 5 µg/mL

C=C1[C@@H]2CC[C@@]3(C)[C@H](c4ccoc4)OC(=O)C[C@]13O[C@H]1[C@H](OC(C)=O)[C@H](OC(C)=O)C(C)(C)[C@H](CC(=O)OC)[C@@]21C
EC50: > 5 µg/mL
